Laboratory results from patent US10688093B2, “Methods, compositions, and uses of novel Fyn kinase inhibitors” (priority 2015, dated 2020).

biological target: full-length recombinant human FYN A (Homo sapiens (Human), UniProt P06241); assay: ADP-Glo Kinase Assay of FYN kinase inhibition; assay type: biochemical; conditions: primary screen, initial compounds
Source text: The chemical library was comprised of the SoftFocus ATP-competitive hinge binding compounds described by Harris, C. J., Hill, R. D., Sheppard, D. W., et al., The Design and Application of Target-Focused Compound Libraries. Combinatorial Chemistry and High Throughput Screening 14:521-31 (2011). The specific pharmacore chemistries included SFK52 comprising 6-[R2]-3-[R1]imidazo[1,2-b] pyridazine compounds, SFK33 comprising N-(3-[R2] imidazo [1,2-b] pyridazin-6-yl) [R1] amine compounds, SFK49 comprising N-(5-[R2] imidazo [2,1-b][1,3,4] thiadiazol-2-yl)[R1]-amine compounds, SFK 40 comprising 5-[R2]-3-[R1] pyridin-2-amine compounds, SFK43 comprising 6-[R2]-3-[R1]imidazo[1,2-a]pyrazine compounds, and SFK63. The chemical structures of the initial 600 potential kinase inhibitors are presented in Table 3, with those chosen for additional analysis presented in Table 4. Comparison of the compounds presented in Table 1 and those of Tables 2, 3 and 4, illustrate the novelty of the chemical structures claimed herein.
FYN kinase (10 micrograms) was from the FYN A Kinase Enzyme System (V3571, Promega UK Ltd.), a full-length recombinant human FYN A containing an N-terminal GST tag of about 85 kDa, expressed by bacullovirus in […] insect cells, supplied at a concentration of 0.1 microgram/microliter in 5×reaction buffer. The FYN substrate, a 12 amino acid peptide of the sequence […], containing a single tyrosine phosphorylation site, was custom synthesized (Peptide Synthetics, Peptide Protein Research, Fareham, UK) and supplied as a 4 mg/ml aqueous solution. All other reagents were obtained from Sigma (Sigma-Aldrich, Gillingham, Dorset, UK), with the exception of UltraPure ATP (V9102, Promega UK Ltd.) and the ATP-competitive broad spectrum protein kinase inhibitor staurosporine (569397, Merck Millipore, Watford, Hertfordshire, UK), or as otherwise indicated.
The assay procedure determines the IC50 of each potential FYN kinase inhibitor by measuring the enzyme catalyzed ATP-dependent phosphorylation of the FYN substrate peptide. The ADP-Glo™ Kinase Assay is specifically designed to quantify kinase activity by measuring the ADP produced in the reaction The reaction buffer comprises 40 mM Tris.HCl (pH 7.5), 20 mM MgCl2, 0.1 mg/ml BSA and 5 microM DTT. Individual compounds within the chemical library were dissolved in DMSO at known concentrations. Briefly, 2.5 microliters of reaction buffer containing 3 picograms of FYN kinase and serial dilutions of each potential FYN kinase inhibitor (9 3-fold dilutions of a 10 micromolar top sample) are placed into each well of a 384 well microtiter plate and incubated at room temperature for 30 minutes. An additional 2.5 microliters of reaction buffer containing 100 picograms of the FYN substrate and 12.5 picomoles of ATP are then added to each well and the reaction carried out for 90 minutes at room temperature. The reactions are terminated by addition of 5 microliters of the ADP-Glo™ Reagent component of the ADP-Glo™ Kinase Assay kit to each well. The ADP-Glo™ Reagent comprises an ATP-dependent adenylate cyclase, an inorganic pyrophosphatase and an excess of staurosporine. The adenylate cyclase converts the remaining ATP to cAMP and pyrophospahte, the pyrophosphatase converts the pyrophosphate to phosphate and the staurosporine inhibits the activity of the FYN kinase, the net effect is to remove all residual ATP while preserving the ADP produced by FYN kinase. The terminated reactions are incubated for 40 minutes at room temperature, prior to addition of the Kinase Detection Reagent component of the ADP-Glo™ Kinase Assay kit to each well. The Kinase Detection Reagent comprises pyruvate kinase, phosphoenol pyruvate (PEP), luciferin and luciferase. The pyruvate kinase converts PEP to pyruvate and in the process generates ATP from the residual ADP present in the terminated reaction. […]

full-length recombinant human FYN A, sequence (P06241 whole entry): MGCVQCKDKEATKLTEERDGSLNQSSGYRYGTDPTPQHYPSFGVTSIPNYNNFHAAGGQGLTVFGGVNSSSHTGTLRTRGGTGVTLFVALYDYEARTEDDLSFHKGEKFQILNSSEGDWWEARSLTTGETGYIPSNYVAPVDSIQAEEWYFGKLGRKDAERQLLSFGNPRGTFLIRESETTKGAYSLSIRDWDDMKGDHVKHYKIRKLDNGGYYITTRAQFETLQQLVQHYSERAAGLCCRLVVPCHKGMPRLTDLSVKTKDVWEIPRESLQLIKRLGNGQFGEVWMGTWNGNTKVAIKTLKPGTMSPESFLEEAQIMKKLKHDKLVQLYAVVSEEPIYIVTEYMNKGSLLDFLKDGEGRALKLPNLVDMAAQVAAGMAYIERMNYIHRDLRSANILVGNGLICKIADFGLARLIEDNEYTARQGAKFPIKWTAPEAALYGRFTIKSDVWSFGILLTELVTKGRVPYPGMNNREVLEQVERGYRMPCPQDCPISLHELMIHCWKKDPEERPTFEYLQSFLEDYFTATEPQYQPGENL

| Structure (SMILES) | IC50 [nM] |
| --- | --- |
| COc1ccc(-c2cnc3ccc(NCc4cccc(Cl)c4)nn23)cn1 [229_0223_0311, N-[(3-chlorophenyl)methyl]-3-(6-methoxy-3-pyridyl)imidazo [1,2-b]pyridazin-6-amine] | 8340 |
| COc1cc(-c2cnc3ccc(NCc4cccc(Cl)c4)nn23)ccc1O [229_0223_0314, 4-[6-[(3-chlorophenyl)methylamino]imidazo[1,2-b]pyridazin-3-yl]-2-methoxy-phenol] | 3520 |
| Nc1ccc(-c2cnc3ccc(NCc4cccc(Cl)c4)nn23)cc1 [229_0223_0333, 3-(4-aminophenyl)-N-[(3-chlorophenyl)methyl]imidazo [1,2-b]pyridazin-6-amine] | 3410 |
| OCc1ccc(-c2cnc3ccc(NCc4ccc(F)cc4)nn23)cc1 [229_0224_0285, [4-[6-[(4-fluorophenyl)methylamino]imidazo[1,2-b]pyridazin-3-yl]phenyl] methanol] | 2440 |
| CCCNc1ccc2ncc(-c3cccc(N)c3)n2n1 [229_0226_0005, 3-(3-aminophenyl)-N-propyl-imidazo[1,2-b]pyridazin-6-amine] | 932 |
| CCCNc1ccc2ncc(-c3ccc4c(c3)OCO4)n2n1 [229_0226_0068, 3-(1,3-benzodioxol-5-yl)-N-propyl-imidazo[1,2-b]pyridazin-6-amine] | 2050 |
| CCCNc1ccc2ncc(-c3ccsc3)n2n1 [229_0226_0074, N-propyl-3-(3-thienyl)imidazo [1,2-b]pyridazin-6-amine] | 4040 |
| CCCNc1ccc2ncc(-c3ccc(OC)c(OC)c3)n2n1 [229_0226_0079, 3-(3,4-dimethoxy-phenyl)-N-propyl-imidazo[1,2-b]pyridazin-6-amine] | 519 |
| CCCNc1ccc2ncc(-c3cccc(NC(C)=O)c3)n2n1 [229_0226_0081, N-[3-[6-(propylamino)imidazo[1,2-b]pyridazin-3-yl]phenyl] acetamide] | 629 |
| CCCNc1ccc2ncc(-c3ccc(C(=O)O)cc3)n2n1 [229_0226_0140, 4-[6-(propylamino)imidazo[1,2-b]pyridazin-3-yl]benzoic acid] | 9770 |
| CCCNc1ccc2ncc(-c3ccc(OC)cc3)n2n1 [229_0226_0280, 3-(4-methoxyphenyl)-N-propyl-imidazo[1,2-b]pyridazin-6-amine] | 5430 |
| CCCNc1ccc2ncc(-c3cccc(O)c3)n2n1 [229_0226_0284, 3-[6-(propylamino)imidazo[1,2-b]pyridazin-3-yl]phenol] | 930 |
| CCCNc1ccc2ncc(-c3cccc(OC)c3)n2n1 [229_0226_4140, 3-(3-methoxyphenyl)-N-propyl-imidazo[1,2-b]pyridazin-6-amine] | 2220 |
| CCCNc1ccc2ncc(-c3cccc(C(C)=O)c3)n2n1 [229_0226_4145, 1-[3-[6-(propylamino)imidazo[1,2-b]pyridazin-3-yl]phenyl] ethanone] | 367 |
| O=C(O)c1ccc(-c2cnc3ccc(NCc4ccc(Cl)c(Cl)c4)nn23)cc1 [229_0227_0140, 4-[6-[(3,4-dichlorophenyl)methylamino]imidazo[1,2-b]pyridazin-3-yl]benzoic acid] | 1010 |
| c1cc(-c2cnc3ccc(NCc4ccc5c(c4)OCO5)nn23)ccn1 [229_0236_0069, N-(1,3-benzodioxol-5-ylmethyl)-3-(4-pyridyl)imidazo [1,2-b]pyridazin-6-amine] | 380 |
| Oc1ccc(-c2cnc3ccc(NCc4ccc5c(c4)OCO5)nn23)cc1 [229_0236_0080, 4-[6-(1,3-benzodioxol-5-ylmethyl-amino)imidazo[1,2-b]pyridazin-3-yl]phenol] | 5670 |
| c1ccc(-c2cnc3ccc(NCc4ccncc4)nn23)cc1 [229_0237_0061, 3-phenyl-N-(4-pyridylmethyl) imidazo[1,2-b]pyridazin-6-amine] | 4060 |

| Structure (SMILES) | IC50 [nM] |
| --- | --- |
| c1ccc2oc(-c3cnc4ccc(NCc5ccncc5)nn34)cc2c1 [229_0237_0073, 3-(benzofuran-2-yl)-N-(4-pyridylmethyl) imidazo[1,2-b]pyridazin-6-amine] | 6450 |
| Nc1cccc(-c2cnc3ccc(NC4CCOCC4)nn23)c1 [229_0242_0005, 3-(3-aminophenyl)-N-tetrahydro-pyran-4-yl-imidazo[1,2-b]pyridazin-6-amine] | 746 |
| COc1ccc(-c2cnc3ccc(NC4CCOCC4)nn23)cc1OC [229_0242_0079, 3-(3,4-dimethoxy-phenyl)-N-tetra-hydropyran-4-yl-imidazo[1,2-b]pyridazin-6-amine] | 547 |
| CC(=O)Nc1cccc(-c2cnc3ccc(NC4CCOCC4)nn23)c1 [229_0242_0081, N-[3-[6-(tetrahydro-pyran-4-ylamino)imidazo[1,2-b]pyridazin-3-yl]phenyl] acetamide] | 588 |
| COc1cc(-c2cnc3ccc(NC4CCOCC4)nn23)cc(OC)c1OC [229_0242_0087, N-tetrahydropyran-4-yl-3-(3,4,5-trimethoxy-phenyl) imidazo[1,2-b]pyridazin-6-amine] | 617 |
| c1cc2cc(-c3cnc4ccc(NC5CCOCC5)nn34)ccc2[nH]1 [229_0242_0204, 3-(1H-indol-5-yl)-N-tetrahydropyran-4-yl-imidazo[1,2-b]pyridazin-6-amine] | 1170 |
| Nc1ccc(-c2cnc3ccc(NC4CCOCC4)nn23)cc1 [229_0242_0333, 3-(4-aminophenyl)-N-tetrahydropyran-4-yl-imidazo[1,2-b]pyridazin-6-amine] | 3130 |
| COc1cccc(-c2cnc3ccc(NC4CCOCC4)nn23)c1 [229_0242_4140, 3-(3-methoxy-phenyl)-N-tetrahydro-pyran-4-yl-imidazo[l,2-b]pyridazin-6-amine] | 870 |
| COc1ccc(CNc2ccc3ncc(-c4ccc(O)c(OC)c4)n3n2)cc1 [229_0244_0314, 2-methoxy-4-[6-[(4-methoxyphenyl)methylamino]imidazo[1,2-b]pyridazin-3-yl]phenol] | 4010 |
| OCCCNc1ccc2ncc(-c3ccc4c(c3)OCO4)n2n1 [229_0248_0068, 3-[[3-(1,3-benzodioxol-5-yl)imidazo[1,2-b]pyridazin-6-yl]amino] propan-1-ol] | 929 |
| OCCCNc1ccc2ncc(-c3ccc4[nH]ccc4c3)n2n1 [229_0248_0204, 3-[[3-(1H-indol-5-yl)imidazo[1,2-b]pyridazin-6-yl]amino] propan-1-ol] | 2720 |
| OCCCNc1ccc2ncc(-c3cccc(C(F)(F)F)c3)n2n1 [229_0248_0312, 3-[[3-[3-(trifluoro-methyl)phenyl]imidazo[1,2-b]pyridazin-6-yl]amino] propan-1-ol] | 3410 |
| COc1cc(-c2cnc3ccc(NCCCO)nn23)ccc1O [229_0248_0314, 4-[6-(3-hydroxy-propylamino)imidazo[1,2-b]pyridazin-3-yl]-2-methoxy-phenol] | 329 |
| OCCCNc1ccc2ncc(-c3ccc(Oc4ccccc4)cc3)n2n1 [229_0248_1029, 3-[[3-(4-phenoxyphenyl)imidazo[1,2-b]pyridazin-6-yl]amino] propan-1-ol] | 5540 |
| CC(C)[C@@H](CO)Nc1ccc2ncc(-c3cccc(N)c3)n2n1 [229_0254_0005, (2S)-2-[[3-(3-aminophenyl)imidazo[1,2-b]pyridazin-6-yl]amino]-3-methyl-butan-1-ol] | 1810 |
| CC(C)[C@@H](CO)Nc1ccc2ncc(-c3ccc4c(c3)OCO4)n2n1 [229_0254_0068, (2S)-2-[[3-(1,3-benzodioxol-5-yl)imidazo[1,2-b]pyridazin-6-yl]amino]-3-methyl-butan-1-ol] | 1820 |
| COc1ccc(-c2cnc3ccc(N[C@H](CO)C(C)C)nn23)cc1OC [229_0254_0079, (2S)-2-[[3-(3,4-dimethoxyphenyl)imidazo[1,2-b]pyridazin-6-yl]amino]-3-methyl-butan-1-ol] | 778 |
